Assay results as given in US12144811B2, “Combination of a 4-pyrimidinesulfamide derivative with an SGLT-2 inhibitor for the treatment of endothelin related diseases” (IDORSIA PHARMACEUTICALS LTD, priority 2017, dated 2024).
One block for each molecule: values may come before it.

Experiments:
patients with rHT = details: 14 week phase 3 trial, versus 12% in each of the other groups; cited from earlier work
[1] = tested on: Spontaneously hypertensive rats (SHR); experiment: Blood pressure by telemetry in SHR, SGLT-2 inhibitor alone or in combination with ACT-132577; assay type: in vivo, rat; details: for Maximal effect on MAP of SGLT2 inhibitor alone: 30 mg/kg/day by gavage
Text: Spontaneously hypertensive rats (SHR) are instrumented micro-surgically with a telemetry pressure transmitter implanted in the peritoneal cavity (Data Science International, Minnesota, USA) under isoflurane-induced narcosis. In brief, the pressure catheter is inserted into the aorta, below the renal artery pointing upstream. The abdomen is closed and the transmitter sutured to the abdominal musculature. Blood pressure is collected continuously using the Dataquest ART Platinum acquisition system (version 4.36). Drugs (ACT-132577 or SGLT2 inhibitors) or vehicle are administered by gavage (n=4-7 per group) alone or in combination. Systolic, mean and diastolic arterial pressures, and heart rate are collected at 5-minute intervals until the blood pressure curve comes back to baseline.
Because it takes several days for the SGLT2 inhibitors to exert an effect on blood pressure, rats are treated first for 12 days with either vehicle (5 ml/kg/day), or canagliflozin (30 mg/kg/day) or empagliflozin (30 mg/kg/day), then ACT-132577 (30 mg/kg/day) is co-administered for 3 additional days.

[2] = tested on: patients with type 2 diabetes; details: overt diabetic nephropathy; cited from earlier work
[3] = Hygroscopicity by gravimetric vapor sorption (GVS); assay type: physicochemical
Text: Mass increase of a sample as obtained according to Example 1 in the first cycle from 40% r.h. to 80% r.h. corresponds to 0.4%. At 95% r.h. 2.2% moisture were taken up in a reversible way without hysteresis upon drying.

[4] = Storage of Form A crystals at room temperature (XRPD and HPLC control); assay type: physicochemical; details: 20-25° C., 92% relative humidity
Experimental: All XRPD patterns for the solid forms described herein have been obtained as described hereafter. X-ray powder diffraction patterns were collected on a Bruker D8 Advance X-ray diffractometer equipped with a Lynxeye detector operated with CuKα-radiation in reflection mode (coupled two Theta/Theta). Typically, the X-ray tube was run at of 40 kV/40 mA. A step size of 0.02° (2θ) and a step time of 76.8 sec over a scanning range of 3-50° in 2θ were applied. The divergence slit was set to fixed 0.3. Powders were slightly pressed into a silicon single crystal sample holder with depth of 0.5 mm and samples were rotated in their own plane during the measurement. Diffraction data are reported using combined Cu Kα1 and Kα2 radiation, without Kα2 stripping. The accuracy of the 2θ values as provided herein is in the range of +/−0.1-0.2° as it is generally the case for conventionally recorded X-ray powder diffraction patterns. A sample of Form A crystals of the COMPOUND (as obtained according to Example 1 above) has been stored at a temperature of 20-25° C. at 92% relative humidity for 2 months. […] The same result was obtained after storage for 8 weeks under the above conditions.

[5] = tested on: conscious, male hypertensive deoxycorticosterone acetate salt rats; experiment: Acute effects of Exforge HCT alone or with ACT-132577 or spironolactone in DOCA-salt rats; assay type: in vivo, rat; details: for Blood pressure when added on top of Exforge HCT: aprocitentan 10 mg/kg or spironolactone 300 mg/kg, single oral doses
Text: Res. (1975), 36, 300-309). In the DOCA-salt rats, hypertension is induced by the combination of unilateral nephrectomy, implantation of pellets of the mineralocorticoid analog DOCA, and provision of 1% sodium chloride in drinking water. 7-9 DOCA-salt rats per treatment group are used for this test. The results obtained regarding MAP are summarised in FIGS. 17 and 18 wherein each data point is presented as a 6-hour mean.

[6] = tested on: conscious, male spontaneaously hypertensive rats; experiment: Acute effects of Exforge HCT alone or with ACT-132577 or spironolactone in SHRs; assay type: in vivo, rat; details: for Blood pressure when added on top of Exforge HCT: aprocitentan 100 mg/kg or spironolactone 300 mg/kg oral
Experimental: The acute effects of Exforge HCT® (i.e. a fixed dose combination of valsartan/amlodipine/hydrochlorothiazide; dosage adapted for 1.6 mg/kg/0.1 mg/kg/0.25 mg/kg for valsartan/amlodipine/hydrochlorothiazide, respectively) on blood pressure, in particular on mean arterial blood pressure (hereafter “MAP”), and heart rate (hereafter “HR”) in combination with ACT-132577 or spironolactone can be evaluated by means of telemetry in conscious, male spontaneaously hypertensive rats (hereafter “SHRs”—see details about this model in Atanur et al., Genome Res. (2010), 20, 791-803).
9 SHRs per treatment group are used for this test. To match the maximal effect on blood pressure of co-administereds drug in this model, aprocitentan 100 mg/kg is administrated orally on the 3rd day following 3-day oral administration of Exforge HCT® mg/kg and spironolactone 300 mg/kg is co-administered orally with Exforge HCT® on the 1st day followed by 2 days of Exforge HCT® administration. The results obtained regarding MAP are summarised in FIGS. 15 and 16 wherein each data point is presented as a 6-hour mean.

male Wistar rats = experiment: Effect on fluid retention: haematocrit in Wistar rats; assay type: in vivo, rat; details: single oral dose 1-30 mg/kg, 24 hours after administration
Experimental: A decrease in haematocrit (Hct) or haemoglobin occurs secondary to an increase in plasma volume and can be used as a marker of fluid retention. A single oral dose of ACT 132577 (1-30 mg/kg) or vehicle (gelatin) is administered by gavage to male Wistar rats. Twenty-four hours after administration, sublingual blood was sampled under isoflurane-induced anesthesia. Haematocrit is measured using a hematology analyser.

[7] = tested on: conscious, male spontaneaously hypertensive rats; experiment: Acute effects on MAP and HR by telemetry in SHRs; assay type: in vivo, rat
Experimental: The acute effects of ACT-132577 on blood pressure, in particular on mean arterial blood pressure (hereafter “MAP”), and heart rate (hereafter “HR”) can be evaluated by means of telemetry in conscious, male spontaneaously hypertensive rats (hereafter “SHRs”—see details about this model in Atanur et al., Genome Res. (2010), 20, 791-803). Groups of 4-6 SHRs are used for the vehicle (7.5% gelatin aqeuous solution) and each dose of ACT-132577 tested (1, 3, 10, 30, 100, and 300 mg/kg). Effects of ACT-132577 on HR and MAP are calculated for individual animals relative to the 24 h period before administering. The results obtained regarding MAP (maximal MAP decrease observed over 6 consecutive hours) are summarised in FIG. 5 (data are presented as mean±standard error of the mean). […] In contrast to MAP, HR was not affected.

[8] = tested on: conscious, male hypertensive deoxycorticosterone acetate salt rats; experiment: Chronic effects of ACT-132577 in DOCA-salt rats; assay type: in vivo, rat
Text: Res. (1975), 36, 300-309). In the DOCA-salt rats, hypertension is induced by the combination of unilateral nephrectomy, implantation of pellets of the mineralocorticoid analog DOCA, and provision of 1% sodium chloride in drinking water. The results of the DOCA-salt rats treated with ACT-132577 can be compared to those obtained for Wistar rats or for DOCA-salt rats that received only the vehicle (4% gelatin aqueous solution).

[9] = tested on: conscious, male hypertensive Dahl salt-sensitive rats; experiment: Acute effects on MAP and HR by telemetry in Dahl salt-sensitive rats; assay type: in vivo, rat; details: Dahl-S rats
Text: The acute effects of ACT-132577 on blood pressure, in particular on mean arterial blood pressure (hereafter “MAP”), and heart rate (hereafter “HR”) can be evaluated by means of telemetry in conscious, male hypertensive Dahl salt-sensitive rats (hereafter “Dahl-S rats”—see details about this model in Rapp, Hypertension (1982), 4, 753-763). Elevated blood pressure is induced in Dahl-S rats by providing 1% sodium chloride in drinking water. Groups of 6-7 Dahl-S rats are used for the vehicle (7.5% gelatin aqeuous solution) and each dose of ACT-132577 tested (0.3, 1, 3, 10, 30, 100, and 300 mg/kg). Effects of ACT-132577 on HR and MAP are calculated for individual animals relative to the 24 h period before administering. The results obtained regarding MAP (maximal MAP decrease observed over 6 consecutive hours) are summarised in FIG. 3 (data are presented as mean±standard error of the mean). […] In contrast to MAP, HR was not affected.

[10] = tested on: conscious, male hypertensive deoxycorticosterone acetate salt rats; experiment: Acute effects on MAP and HR by telemetry in DOCA-salt rats; assay type: in vivo, rat
Text: The acute effects of ACT-132577 on blood pressure, in particular on mean arterial blood pressure (hereafter “MAP”), and heart rate (hereafter “HR”) can be evaluated by means of telemetry in conscious, male hypertensive deoxycorticosterone acetate salt rats (hereafter “DOCA-salt rats”—see details about this model in Gavras et al., Circ. Res. (1975), 36, 300-309). In the DOCA-salt rats, hypertension is induced by the combination of unilateral nephrectomy, implantation of pellets of the mineralocorticoid analog DOCA, and provision of 1% sodium chloride in drinking water. Groups of 6-11 DOCA-salt rats are used for the vehicle (7.5% gelatin aqeuous solution) and each dose of ACT-132577 tested (0.3, 1, 3, 10, 30, 100, and 300 mg/kg). Effects of ACT-132577 on HR and MAP are calculated for individual animals relative to the 24 h period before administering. The results obtained regarding MAP (maximal MAP decrease observed over 6 consecutive hours) are summarised in FIG. 4 (data are presented as mean±standard error of the mean). […] In contrast to MAP, HR was not affected.

[11] = in comparison to corresponding alkylated derivatives; cited from earlier work
[12] = chronic oral administration, DOCA-salt rats
[13] = oral, 1, 10 and 100 mg/kg/day for 4 weeks

Molecule: COc1cc(OC)nc(O[C@H](C(=O)O)C(OC)(c2ccccc2)c2ccccc2)n1 [darusentan]
Fluid retention/edema (most frequent adverse event) (patients with rHT): 28%

Molecule: canagliflozin [reference compound]
Maximal effect on MAP of SGLT2 inhibitor alone [1]: −9±1 mmHg

Molecule: COc1ccccc1Oc1c(NS(=O)(=O)c2ccc(C)cn2)nc(-c2ccncc2)nc1OC [Avosentan, avosentan]
Albumin-to-creatinine ratio (ACR) [2]: significantly reduced

Moisture taken up ([3]; at 95% r.h., reversible, without hysteresis upon drying): 2.2%
Mass increase ([3]; first cycle from 40% r.h. to 80% r.h.): 0.4%
Hygroscopicity (GVS) ([3]; sample as obtained according to Example 1): slightly hygroscopic
X-ray powder diffraction of the sample after storage ([4]; 2 months): still consisting only in Form A crystals
HPLC control after storage (change in peak area %, degradation) ([4]; 8 weeks): no significant degradation
Molecule: NS(=O)(=O)Nc1ncnc(OCCOc2ncc(Br)cn2)c1-c1ccc(Br)cc1 [Form A, {5-(4-bromo-phenyl)-6-[2-(5-bromo-pyrimidin-2-yloxy)-ethoxy]-pyrimidin-4-yl}-sulfamide]

Molecule: CC(=O)S[C@@H]1CC2=CC(=O)CC[C@]2(C)[C@H]2CC[C@@]3(C)[C@@H](CC[C@@]34CCC(=O)O4)[C@H]12 [spironolactone, reference compound]
Blood pressure when added on top of Exforge HCT [5]: further reduced blood pressure
Blood pressure when added on top of Exforge HCT [6]: further reduced blood pressure

Molecule: OC[C@H]1O[C@@H](c2ccc(Cl)c(Cc3ccc(O[C@H]4CCOC4)cc3)c2)[C@H](O)[C@@H](O)[C@@H]1O [empagliflozin, reference compound]
Maximal effect on MAP of SGLT2 inhibitor alone [1]: −13±3 mmHg

Haematocrit (Hct), marker of fluid retention (male Wistar rats): did not impact
Molecule: NS(=O)(=O)Nc1ncnc(OCCOc2ncc(Br)cn2)c1-c1ccc(Br)cc1 [ACT-132577, {5-(4-bromo-phenyl)-6-[2-(5-bromo-pyrimidin-2-yloxy)-ethoxy]-pyrimidin-4-yl}-sulfamide]
Heart rate (HR) [7]: not affected
MAP decrease (maximal MAP decrease observed over 6 consecutive hours) ([7]; 100 mg/kg, mean±SEM): 18±4 mm Hg
Left ventricular hypertrophy [8, 12]: tended to decrease
Plasma concentrations of N-terminal pro-brain natriuretic peptide (NTproBNP) [8, 12]: dose-dependent decrease
Renal blood flow [8, 12]: dose-dependently increased
Renal vascular resistance [8, 12]: decreased
DOCA-salt-induced increase in MAP [8, 13]: dose-dependently attenuated
Heart rate (HR) [8, 13]: without changing HR
Further decrease of blood pressure (MAP) on top of canagliflozin ([1]; ACT-132577 30 mg/kg/day for 3 days after 12 days canagliflozin 30 mg/kg/day): −14±1 mmHg
Further decrease of blood pressure (MAP) on top of empagliflozin ([1]; ACT-132577 30 mg/kg/day for 3 days after 12 days empagliflozin 30 mg/kg/day): −18±3 mmHg
Decrease in blood pressure (MAP) on top of vehicle, without canagliflozin ([1]; ACT-132577 30 mg/kg/day on top of vehicle (canagliflozin comparison)): −16±2 mmHg
Decrease in blood pressure (MAP) on top of vehicle, without empagliflozin ([1]; ACT-132577 30 mg/kg/day on top of vehicle (empagliflozin comparison)): −14±2 mmHg
Heart rate (HR) [9]: not affected
MAP decrease (maximal MAP decrease observed over 6 consecutive hours) ([9]; 10 mg/kg, mean±SEM): 19±4 mm Hg
Blood pressure when added on top of Exforge HCT [5]: further reduced blood pressure
Blood pressure reduction compared with spironolactone, on top of Exforge HCT ([5]; aprocitentan 10 mg/kg vs spironolactone 300 mg/kg): greater blood pressure reduction than spironolactone
Heart rate (HR) [10]: not affected
MAP decrease (maximal MAP decrease observed over 6 consecutive hours) ([10]; 10 mg/kg, mean±SEM): 29±6 mm Hg
Clearance in vivo [11]: much shorter
Half-life in vivo [11]: much longer
Blood pressure when added on top of Exforge HCT [6]: further reduced blood pressure
Blood pressure reduction compared with spironolactone, on top of Exforge HCT ([6]; aprocitentan 100 mg/kg vs spironolactone 300 mg/kg): greater blood pressure reduction than spironolactone
